Measured values taken from patent US20250275959A1, “COMPOUNDS AND METHODS OF THEIR USE” (LEXICON PHARMACEUTICALS, INC., priority 2024, published 2025).

Columns and labels:
hACSL5 [1] = biological target: T1, hACSL5 (Homo sapiens (Human), UniProt Q9ULC5); experiment: Human ACSL5 coupled enzyme Amplex Red assay; type: biochemical; settings: read-out: hACSL5 IC50
Procedure, shortened: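 C-terminally His-tagged ACSL5 (33-683) from sf9 cells, 20 nM, was preincubated with compound in MOPS-NaOH pH 7.6 with MgCl2, peroxidase and acyl-CoA oxidase. Reactions were started with 25 μM oleate, 30 μM CoA, 1 mM ATP and 50 μM Amplex Red; fluorescence (535/590 nm) after 10 minutes at 25° C. was fitted to the Hill equation for IC50 and maximal inhibition.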
Target sequence in this assay (Q9ULC5 33-683): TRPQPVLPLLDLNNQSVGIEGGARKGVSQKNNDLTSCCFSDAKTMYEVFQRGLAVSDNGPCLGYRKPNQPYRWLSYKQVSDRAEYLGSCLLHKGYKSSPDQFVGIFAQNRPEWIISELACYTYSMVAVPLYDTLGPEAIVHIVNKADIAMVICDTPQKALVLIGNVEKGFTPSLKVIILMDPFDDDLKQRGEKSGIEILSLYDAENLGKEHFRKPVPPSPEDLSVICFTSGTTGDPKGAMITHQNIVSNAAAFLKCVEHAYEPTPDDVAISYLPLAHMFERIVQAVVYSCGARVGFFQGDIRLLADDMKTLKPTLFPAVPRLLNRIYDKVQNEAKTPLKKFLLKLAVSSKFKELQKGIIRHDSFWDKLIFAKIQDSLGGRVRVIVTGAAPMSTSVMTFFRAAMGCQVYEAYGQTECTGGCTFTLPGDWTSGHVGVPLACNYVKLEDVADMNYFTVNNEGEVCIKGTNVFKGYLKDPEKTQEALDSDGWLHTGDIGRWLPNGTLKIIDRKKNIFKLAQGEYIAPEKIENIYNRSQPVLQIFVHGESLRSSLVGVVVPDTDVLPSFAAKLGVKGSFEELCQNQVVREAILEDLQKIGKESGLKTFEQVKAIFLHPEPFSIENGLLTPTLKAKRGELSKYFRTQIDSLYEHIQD

hACSL5 [2] = biological target: T1, hACSL5; experiment: Cell-based assay (CBA) with B12FA in hACSL5-transfected Expi293F / FlpIn TRex293 cells; settings: hACSL5-expressing cells
Procedure, shortened: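 hACSL5-expressing Expi293F or tetracycline-induced FlpIn TRex293 cells, serum- and glucose-starved 1 h, then treated 3 h with serially diluted compound plus 20 µM B12FA. After fixation, 630/520 nm emission ratio (ex 485 nm) gave % inhibition versus no-inhibitor and 10 µM compound/non-induced controls; IC50 by Hill fit.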
Target sequence in this assay (Q9ULC5 whole entry): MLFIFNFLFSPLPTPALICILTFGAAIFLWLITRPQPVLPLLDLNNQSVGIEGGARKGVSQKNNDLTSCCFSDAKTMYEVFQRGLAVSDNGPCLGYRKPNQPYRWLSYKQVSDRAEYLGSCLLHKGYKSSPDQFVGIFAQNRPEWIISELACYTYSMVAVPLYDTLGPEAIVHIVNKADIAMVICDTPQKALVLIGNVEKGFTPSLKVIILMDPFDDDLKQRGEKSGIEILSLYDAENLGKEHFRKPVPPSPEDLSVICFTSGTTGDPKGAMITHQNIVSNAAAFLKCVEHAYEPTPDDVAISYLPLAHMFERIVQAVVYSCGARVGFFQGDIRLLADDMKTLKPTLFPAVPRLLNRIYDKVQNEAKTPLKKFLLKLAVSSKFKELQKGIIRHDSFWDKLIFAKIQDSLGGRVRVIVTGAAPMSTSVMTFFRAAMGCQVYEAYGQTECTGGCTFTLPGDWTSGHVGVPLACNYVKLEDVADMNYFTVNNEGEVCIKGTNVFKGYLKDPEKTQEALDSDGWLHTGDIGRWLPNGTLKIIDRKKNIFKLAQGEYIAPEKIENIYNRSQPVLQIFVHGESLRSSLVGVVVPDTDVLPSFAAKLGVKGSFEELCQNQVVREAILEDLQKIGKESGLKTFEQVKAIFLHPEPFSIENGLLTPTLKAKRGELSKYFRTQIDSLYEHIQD

SMILES	IC50 (hACSL5 [1])	IC50 (hACSL5 [2])
C[C@@H](Oc1ccc(C(=O)NS(=O)(=O)N2CCC(OC3CCN(C)CC3)CC2)cc1C(F)(F)F)c1ccc(Oc2ccccn2)cn1 [(R)-N-((4-((1-methylpiperidin-4-yl)oxy)piperidin-1-yl)sulfonyl)-4-(1-(5-(pyridin-2-yloxy)pyridin-2-yl)ethoxy)-3-(trifluoromethyl)benzamide]	< 100 nM	< 100 nM
CC[C@@H](Oc1ccc(C(=O)NS(=O)(=O)N2CCN(CC)CC2)cc1C(F)(F)F)c1ccc(OCC2CC2)cn1 [(R)-4-(1-(5-(cyclopropylmethoxy)pyridin-2-yl)propoxy)-N-((4-ethylpiperazin-1-yl)sulfonyl)-3-(trifluoromethyl)benzamide]	< 100 nM	< 100 nM
CC[C@@H](Oc1ccc(C(=O)NS(=O)(=O)N2CCN(C3CCCCC3)CC2)c(F)c1F)c1ccc(OCC2CC2)cn1 [(R)-N-((4-cyclohexylpiperazin-1-yl)sulfonyl)-4-(1-(5-(cyclopropylmethoxy)pyridin-2-yl)propoxy)-2,3-difluorobenzamide]	< 100 nM	> 500 nM
CC[C@@H](Oc1ccc(C(=O)NS(=O)(=O)N2CC3CCC(C2)N3C)c(F)c1F)c1ccc(OCC2CC2)cn1 [4-((R)-1-(5-(cyclopropylmethoxy)pyridin-2-yl)propoxy)-2,3-difluoro-N-((8-methyl-3,8-diazabicyclo[3.2.1]octan-3-yl)sulfonyl)benzamide]	< 100 nM	< 100 nM
CC[C@@H](Oc1ccc(C(=O)NS(=O)(=O)c2ccc(NC3CCN(C)CC3)nc2)c(F)c1F)c1ccc(OCC2CC2)cn1 [(R)-4-(1-(5-(cyclopropylmethoxy)pyridin-2-yl)propoxy)-2,3-difluoro-N-((6-((1-methylpiperidin-4-yl)amino)pyridin-3-yl)sulfonyl)benzamide]	< 100 nM	> 500 nM
CC[C@@H](Oc1ccc(C(=O)NS(=O)(=O)c2ccc(O[C@@H]3CCN(C)C3)cc2)c(F)c1F)c1ccc(OCC2CC2)cn1 [4-((R)-1-(5-(cyclopropylmethoxy)pyridin-2-yl)propoxy)-2,3-difluoro-N-((4-(((R)-1-methylpyrrolidin-3-yl)oxy)phenyl)sulfonyl)benzamide]	< 100 nM	100 to 500 nM
CC[C@@H](Oc1ccc(C(=O)NS(=O)(=O)N2CCN(CC)CC2)c(F)c1F)c1ccc(Oc2ccccn2)cn1 [(R)-N-((4-ethylpiperazin-1-yl)sulfonyl)-2,3-difluoro-4-(1-(5-(pyridin-2-yloxy)pyridin-2-yl)propoxy)benzamide]	< 100 nM	< 100 nM
CC[C@@H](Oc1ccc(C(=O)NS(=O)(=O)N2CCN(C3CCCCC3)CC2)c(F)c1F)c1ccc(Oc2ccccn2)cn1 [(R)-N-((4-cyclohexylpiperazin-1-yl)sulfonyl)-2,3-difluoro-4-(1-(5-(pyridin-2-yloxy)pyridin-2-yl)propoxy)benzamide]	< 100 nM	100 to 500 nM
CC[C@@H](Oc1ccc(C(=O)NS(=O)(=O)c2ccc(O[C@@H]3C[C@H]4C[C@@H]3CN4)cc2)c(F)c1F)c1ccc(OCC2CC2)cn1 [N-((4-(((1R,4R,5R)-2-azabicyclo[2.2.1]heptan-5-yl)oxy)phenyl)sulfonyl)-4-((R)-1-(5-(cyclopropylmethoxy)pyridin-2-yl)propoxy)-2,3-difluorobenzamide]	< 100 nM	> 500 nM
CC[C@@H](Oc1ccc(C(=O)NS(=O)(=O)N2CCN(C)CC2)c(F)c1F)c1ccc(OC2CC(OC)C2)cn1 (stereo partly drawn) [2,3-difluoro-4-((R)-1-(5-((1R,3R)-3-methoxycyclobutoxy)pyridin-2-yl)propoxy)-N-((4-methylpiperazin-1-yl)sulfonyl)benzamide]	100 to 500 nM	100 to 500 nM
CC[C@@H](Oc1ccc(C(=O)NS(=O)(=O)N2CCC(OC3CCN(C)CC3)CC2)cc1C(F)(F)F)c1ccc(OCC2CC2)cn1 [(R)-4-(1-(5-(cyclopropylmethoxy)pyridin-2-yl)propoxy)-N-((4-((1-methylpiperidin-4-yl)oxy)piperidin-1-yl)sulfonyl)-3-(trifluoromethyl)benzamide]	< 100 nM	< 100 nM
CC[C@@H](Oc1ccc(C(=O)NS(=O)(=O)c2ccc(OC3CCN(C(C)C)CC3)nc2)c(F)c1F)c1ccc(OCC2CC2)cn1 [(R)-4-(1-(5-(cyclopropylmethoxy)pyridin-2-yl)propoxy)-2,3-difluoro-N-((6-((1-isopropylpiperidin-4-yl)oxy)pyridin-3-yl)sulfonyl)benzamide]	< 100 nM	100 to 500 nM
CC[C@@H](Oc1ccc(C(=O)NS(=O)(=O)N2CCN(C)[C@@H](C)C2)c(F)c1F)c1ccc(OCC2CC2)cn1 [4-((R)-1-(5-(cyclopropylmethoxy)pyridin-2-yl)propoxy)-N-(((S)-3,4-dimethylpiperazin-1-yl)sulfonyl)-2,3-difluorobenzamide]	< 100 nM	< 100 nM
CC[C@@H](Oc1ccc(C(=O)NS(=O)(=O)C(C)(C)CN(C)C)c(F)c1F)c1ccc(OCC2CC2)cn1 [(R)-4-(1-(5-(cyclopropylmethoxy)pyridin-2-yl)propoxy)-N-((1-(dimethylamino)-2-methylpropan-2-yl)sulfonyl)-2,3-difluorobenzamide]	100 to 500 nM	100 to 500 nM
CC[C@@H](Oc1ccc(C(=O)NS(=O)(=O)N2CCC(OC3CCN(CCOC)CC3)CC2)c(F)c1F)c1ccc(Oc2ccccn2)cn1 [(R)-2,3-difluoro-N-((4-((1-(2-methoxyethyl)piperidin-4-yl)oxy)piperidin-1-yl)sulfonyl)-4-(1-(5-(pyridin-2-yloxy)pyridin-2-yl)propoxy)benzamide]	< 100 nM	< 100 nM
